Experimental data: ChEMBL document CHEMBL1155237, “Selective inhibitors of the mutant B-Raf pathway: discovery of a potent and orally bioavailable aminoisoquinoline” (J Med Chem, 2009)

What was measured:
[1] = target: Serine/threonine-protein kinase 24 (Homo sapiens) (UniProt Q9Y6E0); test: Inhibition of MST3 assessed as enzyme activity at 1 uM relative to untreated control; parameters: scale not given: the % may be the effect or the level left
[2] = target: Serine/threonine-protein kinase PLK1 (Homo sapiens) (UniProt P53350); test: Inhibition of PLK1 assessed as enzyme activity at 1 uM relative to untreated control; parameters: scale not given: the % may be the effect or the level left
[3] = target: Serine/threonine-protein kinase Nek2 (Homo sapiens) (UniProt P51955); test: Inhibition of NEK2 assessed as enzyme activity at 1 uM relative to untreated control; parameters: scale not given: the % may be the effect or the level left
[4] = target: Tyrosine-protein kinase CSK (Homo sapiens) (UniProt P41240); test: Inhibition of CSK assessed as enzyme activity at 1 uM relative to untreated control; parameters: scale not given: the % may be the effect or the level left
[5] = target: Calcium/calmodulin-dependent protein kinase type 1 (Homo sapiens) (UniProt Q14012); test: Inhibition of CAMK1 assessed as enzyme activity at 1 uM relative to untreated control; parameters: scale not given: the % may be the effect or the level left
[6] = target: Serine/threonine-protein kinase SIK1 (Homo sapiens) (UniProt P57059); test: Inhibition of SNF1LK assessed as enzyme activity at 1 uM relative to untreated control; parameters: scale not given: the % may be the effect or the level left
[7] = target: Dual specificity mitogen-activated protein kinase kinase 4 (Homo sapiens) (UniProt P45985); test: Inhibition of MEK4 assessed as enzyme activity at 1 uM relative to untreated control; parameters: scale not given: the % may be the effect or the level left
[8] = target: Dual specificity protein kinase CLK2 (Homo sapiens) (UniProt P49760); test: Inhibition of CLK2 assessed as enzyme activity at 1 uM relative to untreated control; parameters: scale not given: the % may be the effect or the level left
[9] = system: Mus musculus; test: Inhibition of ERK phosphorylation in human A375 SQ2 cells xenografted CD1 mouse at 5 mg/kg, po qd after 6 hrs; format: functional; conditions: CD1, A375-SQ2, 6 h
[10] = system: A-375; test: Antitumor activity against human A375 SQ2 cells xenografted in CD1 mouse assessed as regression of tumor growth at 5 mg/kg, po qd for 14 days; format: functional
[11] = target: Tyrosine-protein kinase JAK1 (Homo sapiens) (UniProt P23458); test: Inhibition of JAK1 kinase domain 1 assessed as enzyme activity at 1 uM relative to untreated control; parameters: scale not given: the % may be the effect or the level left
[12] = target: Serine/threonine-protein kinase Nek6 (Homo sapiens) (UniProt Q9HC98); test: Inhibition of NEK6 assessed as enzyme activity at 1 uM relative to untreated control; parameters: scale not given: the % may be the effect or the level left
[13] = target: Mitogen-activated protein kinase 4 (Homo sapiens) (UniProt P31152); test: Inhibition of ERK4 assessed as enzyme activity at 1 uM relative to untreated control; parameters: scale not given: the % may be the effect or the level left
[14] = target: Serine/threonine-protein kinase N2 (Homo sapiens) (UniProt Q16513); test: Inhibition of PKN2 assessed as enzyme activity at 1 uM relative to untreated control; parameters: scale not given: the % may be the effect or the level left
[15] = system: Epidermal growth factor receptor (Homo sapiens), P00533 [G719C]; test: Inhibition of EGFR G719C mutant assessed as enzyme activity at 1 uM relative to untreated control; format: protein assay; parameters: scale not given: the % may be the effect or the level left
[16] = system: Epidermal growth factor receptor (Homo sapiens), P00533 [L858R]; test: Inhibition of EGFR L858R mutant assessed as enzyme activity at 1 uM relative to untreated control; format: protein assay; parameters: scale not given: the % may be the effect or the level left
[17] = target: Cyclin-dependent kinase 5 (Homo sapiens) (UniProt Q00535); test: Inhibition of CDK5 assessed as enzyme activity at 1 uM relative to untreated control; parameters: scale not given: the % may be the effect or the level left
[18] = target: Bone morphogenetic protein receptor type-1B (Homo sapiens) (UniProt O00238); test: Inhibition of BMPR1B assessed as enzyme activity at 1 uM relative to untreated control; parameters: scale not given: the % may be the effect or the level left
[19] = target: Tyrosine-protein kinase TXK (Homo sapiens) (UniProt P42681); test: Inhibition of TXK assessed as enzyme activity at 1 uM relative to untreated control; parameters: scale not given: the % may be the effect or the level left
[20] = system: Receptor-type tyrosine-protein kinase FLT3 (Homo sapiens), P36888 [D835H]; test: Inhibition of FLT3 D835H mutant assessed as enzyme activity at 1 uM relative to untreated control; parameters: scale not given: the % may be the effect or the level left
[21] = system: Receptor-type tyrosine-protein kinase FLT3 (Homo sapiens), P36888 [N841I]; test: Inhibition of FLT3 N841I mutant assessed as enzyme activity at 1 uM relative to untreated control; parameters: scale not given: the % may be the effect or the level left
[22] = target: Cyclin-dependent kinase 11B (Homo sapiens) (UniProt P21127); test: Inhibition of CDC2L1 assessed as enzyme activity at 1 uM relative to untreated control; parameters: scale not given: the % may be the effect or the level left
[23] = target: Serine/threonine-protein kinase MARK1 (Homo sapiens) (UniProt Q9P0L2); test: Inhibition of MARK1 assessed as enzyme activity at 1 uM relative to untreated control; parameters: scale not given: the % may be the effect or the level left
[24] = target: Epidermal growth factor receptor (Homo sapiens) (UniProt P04626+P00533+Q15303+P21860); test: Inhibition of EGFR E746-A750del mutant assessed as enzyme activity at 1 uM relative to untreated control; format: protein assay; parameters: scale not given: the % may be the effect or the level left
[25] = target: Serine/threonine-protein kinase NLK (Homo sapiens) (UniProt Q9UBE8); test: Inhibition of NLK assessed as enzyme activity at 1 uM relative to untreated control; parameters: scale not given: the % may be the effect or the level left
[26] = target: Epidermal growth factor receptor (Homo sapiens) (UniProt P00533); test: Inhibition of EGFR assessed as enzyme activity at 1 uM relative to untreated control; parameters: scale not given: the % may be the effect or the level left
[27] = target: Non-receptor tyrosine-protein kinase TYK2 (Homo sapiens) (UniProt P29597); test: Inhibition of TYK2 kinase domain 2 assessed as enzyme activity at 1 uM relative to untreated control; parameters: scale not given: the % may be the effect or the level left
[28] = target: Vascular endothelial growth factor receptor 2 (Homo sapiens, UniProt P35968); test: Inhibition of KDR
[29] = target: Dual specificity mitogen-activated protein kinase kinase 6 (Homo sapiens) (UniProt P52564); test: Inhibition of MEK6 assessed as enzyme activity at 1 uM relative to untreated control; parameters: scale not given: the % may be the effect or the level left
[30] = target: Ribosomal protein S6 kinase alpha-1 (Homo sapiens) (UniProt Q15418); test: Inhibition of RPS6KA1 kinase domain 1 assessed as enzyme activity at 1 uM relative to untreated control; parameters: scale not given: the % may be the effect or the level left
[31] = target: Glycogen synthase kinase-3 alpha (Homo sapiens) (UniProt P49840); test: Inhibition of GSK3A assessed as enzyme activity at 1 uM relative to untreated control; parameters: scale not given: the % may be the effect or the level left
[32] = target: Serine/threonine-protein kinase 16 (Homo sapiens) (UniProt O75716); test: Inhibition of STK16 assessed as enzyme activity at 1 uM relative to untreated control; parameters: scale not given: the % may be the effect or the level left
[33] = target: Phosphatidylinositol 4,5-bisphosphate 3-kinase catalytic subunit beta isoform (Homo sapiens) (UniProt P42338); test: Inhibition of PIK3CB assessed as enzyme activity at 1 uM relative to untreated control; parameters: scale not given: the % may be the effect or the level left
[34] = target: Serine/threonine-protein kinase D3 (Homo sapiens) (UniProt O94806); test: Inhibition of PRKD3 assessed as enzyme activity at 1 uM relative to untreated control; parameters: scale not given: the % may be the effect or the level left
[35] = target: Calcium/calmodulin-dependent protein kinase type II subunit beta (Homo sapiens) (UniProt Q13554); test: Inhibition of CAMK2B assessed as enzyme activity at 1 uM relative to untreated control; parameters: scale not given: the % may be the effect or the level left
[36] = target: Calcium/calmodulin-dependent protein kinase type II subunit alpha (Homo sapiens) (UniProt Q9UQM7); test: Inhibition of CAMK2A assessed as enzyme activity at 1 uM relative to untreated control; parameters: scale not given: the % may be the effect or the level left
[37] = target: Macrophage-stimulating protein receptor (Homo sapiens) (UniProt Q04912); test: Inhibition of MST1R assessed as enzyme activity at 1 uM relative to untreated control; parameters: scale not given: the % may be the effect or the level left
Sequence of Macrophage-stimulating protein receptor (Homo sapiens) (Q04912 25-304 limits assumed): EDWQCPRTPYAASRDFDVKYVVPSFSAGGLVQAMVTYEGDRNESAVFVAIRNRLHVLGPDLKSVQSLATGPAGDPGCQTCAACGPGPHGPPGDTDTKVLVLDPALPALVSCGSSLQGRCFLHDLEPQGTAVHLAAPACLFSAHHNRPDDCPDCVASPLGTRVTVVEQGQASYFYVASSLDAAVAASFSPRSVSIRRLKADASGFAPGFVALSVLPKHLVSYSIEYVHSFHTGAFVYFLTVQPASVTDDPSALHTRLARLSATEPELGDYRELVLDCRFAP
Sequence of Macrophage-stimulating protein receptor (Homo sapiens) (Q04912 310-1400 limits assumed): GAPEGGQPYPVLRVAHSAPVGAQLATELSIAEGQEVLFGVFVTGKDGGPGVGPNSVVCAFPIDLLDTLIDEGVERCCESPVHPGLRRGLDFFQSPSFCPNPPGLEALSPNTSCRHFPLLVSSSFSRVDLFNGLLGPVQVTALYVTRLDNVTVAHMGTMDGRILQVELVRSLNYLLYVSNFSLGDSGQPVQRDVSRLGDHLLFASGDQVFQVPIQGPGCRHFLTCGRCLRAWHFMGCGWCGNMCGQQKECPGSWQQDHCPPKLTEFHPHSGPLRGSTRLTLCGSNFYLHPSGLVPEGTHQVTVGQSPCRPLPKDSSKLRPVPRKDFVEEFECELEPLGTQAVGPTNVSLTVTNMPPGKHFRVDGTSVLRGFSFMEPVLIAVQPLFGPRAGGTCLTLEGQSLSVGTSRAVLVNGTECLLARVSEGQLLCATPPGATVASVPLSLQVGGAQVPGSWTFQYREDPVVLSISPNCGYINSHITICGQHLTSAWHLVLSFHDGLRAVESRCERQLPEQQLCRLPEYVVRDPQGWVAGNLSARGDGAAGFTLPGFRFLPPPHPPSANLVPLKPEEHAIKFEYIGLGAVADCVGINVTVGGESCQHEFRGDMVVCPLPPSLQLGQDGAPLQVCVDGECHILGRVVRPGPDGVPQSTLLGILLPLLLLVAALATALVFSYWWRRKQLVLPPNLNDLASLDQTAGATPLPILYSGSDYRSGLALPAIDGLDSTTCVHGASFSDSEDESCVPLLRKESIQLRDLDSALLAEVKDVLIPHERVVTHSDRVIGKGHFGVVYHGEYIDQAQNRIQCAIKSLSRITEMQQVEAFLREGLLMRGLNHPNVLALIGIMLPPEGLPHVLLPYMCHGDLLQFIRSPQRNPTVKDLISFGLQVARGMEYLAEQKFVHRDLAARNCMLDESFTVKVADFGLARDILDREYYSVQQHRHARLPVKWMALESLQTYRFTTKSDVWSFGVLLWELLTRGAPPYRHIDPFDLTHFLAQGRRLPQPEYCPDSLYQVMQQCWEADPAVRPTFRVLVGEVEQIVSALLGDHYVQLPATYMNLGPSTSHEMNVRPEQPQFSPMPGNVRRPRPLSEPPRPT

Sequence of Serine/threonine-protein kinase D3 (Homo sapiens) (O94806 whole entry): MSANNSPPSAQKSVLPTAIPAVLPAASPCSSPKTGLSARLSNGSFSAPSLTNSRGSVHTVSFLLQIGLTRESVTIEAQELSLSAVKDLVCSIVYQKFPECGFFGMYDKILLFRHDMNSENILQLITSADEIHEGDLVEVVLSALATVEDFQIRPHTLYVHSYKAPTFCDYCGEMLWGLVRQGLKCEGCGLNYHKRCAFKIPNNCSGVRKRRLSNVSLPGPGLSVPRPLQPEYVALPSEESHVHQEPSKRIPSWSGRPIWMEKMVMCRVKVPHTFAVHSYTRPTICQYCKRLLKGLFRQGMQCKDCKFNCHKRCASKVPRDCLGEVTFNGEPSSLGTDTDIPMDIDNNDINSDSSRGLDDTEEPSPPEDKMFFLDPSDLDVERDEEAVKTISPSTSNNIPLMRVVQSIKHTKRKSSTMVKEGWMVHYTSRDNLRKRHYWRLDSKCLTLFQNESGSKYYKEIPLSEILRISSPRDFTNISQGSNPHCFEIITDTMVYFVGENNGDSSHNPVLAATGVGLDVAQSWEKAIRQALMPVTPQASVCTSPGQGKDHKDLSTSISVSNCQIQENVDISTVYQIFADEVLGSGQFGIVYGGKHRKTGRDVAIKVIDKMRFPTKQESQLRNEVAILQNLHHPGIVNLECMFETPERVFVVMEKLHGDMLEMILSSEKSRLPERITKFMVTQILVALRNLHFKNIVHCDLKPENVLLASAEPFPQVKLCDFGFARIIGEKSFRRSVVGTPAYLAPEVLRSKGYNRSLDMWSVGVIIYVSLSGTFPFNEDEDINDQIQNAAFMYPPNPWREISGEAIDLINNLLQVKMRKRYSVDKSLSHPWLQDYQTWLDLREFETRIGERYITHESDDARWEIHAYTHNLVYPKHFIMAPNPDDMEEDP
Sequence of Phosphatidylinositol 4,5-bisphosphate 3-kinase catalytic subunit beta isoform (Homo sapiens) (P42338 whole entry, looked up, canonical isoform): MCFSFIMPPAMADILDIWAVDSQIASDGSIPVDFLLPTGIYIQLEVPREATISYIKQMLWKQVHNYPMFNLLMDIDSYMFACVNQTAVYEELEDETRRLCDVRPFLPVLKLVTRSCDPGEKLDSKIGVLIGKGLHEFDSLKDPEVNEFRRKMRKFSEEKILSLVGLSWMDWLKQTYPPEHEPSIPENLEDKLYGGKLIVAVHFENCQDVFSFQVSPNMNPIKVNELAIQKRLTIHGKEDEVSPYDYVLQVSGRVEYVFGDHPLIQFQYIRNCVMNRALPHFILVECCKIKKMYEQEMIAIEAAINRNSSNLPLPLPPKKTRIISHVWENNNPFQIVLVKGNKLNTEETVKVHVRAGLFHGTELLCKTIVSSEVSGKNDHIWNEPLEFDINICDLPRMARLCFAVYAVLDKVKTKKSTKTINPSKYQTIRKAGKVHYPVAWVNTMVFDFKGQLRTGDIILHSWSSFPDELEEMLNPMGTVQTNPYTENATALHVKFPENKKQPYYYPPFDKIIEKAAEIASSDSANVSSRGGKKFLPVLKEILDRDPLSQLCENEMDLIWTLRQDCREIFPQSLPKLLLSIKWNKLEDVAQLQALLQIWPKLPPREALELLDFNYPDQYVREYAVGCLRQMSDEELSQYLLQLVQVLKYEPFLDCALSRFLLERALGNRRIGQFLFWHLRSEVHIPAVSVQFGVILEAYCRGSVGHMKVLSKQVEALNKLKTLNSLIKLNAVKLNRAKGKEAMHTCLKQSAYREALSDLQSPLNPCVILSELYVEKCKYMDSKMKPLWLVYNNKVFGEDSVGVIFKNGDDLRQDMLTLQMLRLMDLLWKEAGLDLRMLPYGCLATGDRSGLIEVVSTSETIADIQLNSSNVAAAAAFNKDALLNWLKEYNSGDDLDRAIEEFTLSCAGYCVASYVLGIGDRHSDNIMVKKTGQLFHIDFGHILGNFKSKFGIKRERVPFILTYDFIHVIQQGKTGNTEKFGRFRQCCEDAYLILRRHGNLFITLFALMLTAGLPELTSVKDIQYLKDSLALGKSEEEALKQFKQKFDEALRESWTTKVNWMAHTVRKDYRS
Sequence of Vascular endothelial growth factor receptor 2 (P35968 whole entry): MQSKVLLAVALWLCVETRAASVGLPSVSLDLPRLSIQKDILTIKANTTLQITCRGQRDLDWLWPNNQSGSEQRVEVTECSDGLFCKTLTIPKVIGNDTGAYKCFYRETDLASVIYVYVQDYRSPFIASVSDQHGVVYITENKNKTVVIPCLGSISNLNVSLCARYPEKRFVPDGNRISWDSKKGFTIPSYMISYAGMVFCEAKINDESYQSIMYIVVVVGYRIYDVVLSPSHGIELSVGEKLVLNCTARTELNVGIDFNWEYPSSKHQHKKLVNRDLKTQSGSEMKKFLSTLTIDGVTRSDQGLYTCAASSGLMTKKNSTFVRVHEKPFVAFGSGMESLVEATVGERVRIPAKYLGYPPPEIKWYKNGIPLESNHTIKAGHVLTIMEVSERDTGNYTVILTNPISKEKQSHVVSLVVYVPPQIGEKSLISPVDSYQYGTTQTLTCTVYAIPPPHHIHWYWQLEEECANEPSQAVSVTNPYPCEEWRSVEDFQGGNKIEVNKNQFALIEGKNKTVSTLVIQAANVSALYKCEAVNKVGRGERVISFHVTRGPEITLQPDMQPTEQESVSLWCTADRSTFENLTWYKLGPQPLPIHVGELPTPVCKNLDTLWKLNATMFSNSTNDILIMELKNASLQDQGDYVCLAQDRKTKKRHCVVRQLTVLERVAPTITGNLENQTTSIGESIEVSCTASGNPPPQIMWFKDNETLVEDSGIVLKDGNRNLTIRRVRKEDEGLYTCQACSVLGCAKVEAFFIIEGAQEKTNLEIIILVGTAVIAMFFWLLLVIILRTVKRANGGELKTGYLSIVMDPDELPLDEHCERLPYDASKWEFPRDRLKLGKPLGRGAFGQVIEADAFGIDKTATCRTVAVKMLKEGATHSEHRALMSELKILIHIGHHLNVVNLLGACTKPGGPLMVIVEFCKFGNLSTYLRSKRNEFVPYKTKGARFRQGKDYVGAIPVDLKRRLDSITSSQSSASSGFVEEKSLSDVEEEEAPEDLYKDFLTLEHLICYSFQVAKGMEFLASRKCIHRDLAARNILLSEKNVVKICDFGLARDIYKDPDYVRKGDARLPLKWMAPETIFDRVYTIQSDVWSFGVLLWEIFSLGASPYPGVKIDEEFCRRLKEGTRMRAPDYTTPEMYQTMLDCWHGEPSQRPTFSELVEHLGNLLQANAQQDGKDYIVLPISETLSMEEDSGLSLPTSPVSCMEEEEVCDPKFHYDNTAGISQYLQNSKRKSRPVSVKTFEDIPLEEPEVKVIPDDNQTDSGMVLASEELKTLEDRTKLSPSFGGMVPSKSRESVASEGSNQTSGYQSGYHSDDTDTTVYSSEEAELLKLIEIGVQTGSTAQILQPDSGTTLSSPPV
Sequence of Calcium/calmodulin-dependent protein kinase type 1 (Homo sapiens) (Q14012 whole entry, looked up): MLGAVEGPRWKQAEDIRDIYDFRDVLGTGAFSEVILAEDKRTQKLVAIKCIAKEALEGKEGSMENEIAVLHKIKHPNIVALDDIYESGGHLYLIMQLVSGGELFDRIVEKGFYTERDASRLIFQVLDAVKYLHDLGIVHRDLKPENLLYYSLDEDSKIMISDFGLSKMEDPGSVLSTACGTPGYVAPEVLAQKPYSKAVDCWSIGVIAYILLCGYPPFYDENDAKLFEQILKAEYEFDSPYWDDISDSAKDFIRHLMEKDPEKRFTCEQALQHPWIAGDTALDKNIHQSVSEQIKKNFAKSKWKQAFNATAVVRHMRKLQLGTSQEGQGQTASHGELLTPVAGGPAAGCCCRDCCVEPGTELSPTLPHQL

Cc1ccc2c(Nc3ccc(Cl)cc3)nccc2c1Nc1ncccc1-c1ncnc2[nH]cnc12.Cl.Cl.Cl
Activity [1]: 87% | Activity [2]: 100% | Activity [3]: 90% | Activity [4]: 100% | Activity [5]: 100% | Activity [6]: 75% | Activity [7]: 93% | Activity [8]: 100% | inhibition in vivo at 5 mg/kg [9]: 77% | Activity [10]: 85% | Activity [11]: 98% | Activity [12]: 100% | Activity [13]: 100% | Activity [14]: 86% | Activity [15]: 92% | Activity [16]: 100% | Activity [17]: 100% | Activity [18]: 96% | Activity [19]: 100% | Activity [20]: 99% | Activity [21]: 100% | Activity [22]: 42% | Activity [23]: 97% | Activity [24]: 86% | Activity [25]: 83% | Activity [26]: 100% | Activity [27]: 28% | IC50 [28]: 1000 nM | Activity [29]: 96% | Activity [30]: 94% | Activity [31]: 100% | Activity [32]: 100% | Activity [33]: 100% | Activity [34]: 100% | Activity [35]: 100% | Activity [36]: 100% | Activity [37]: 97%
